{"source": "patent US20190284129A1", "about": "“LIPID COMPOUNDS AND COMPOSITIONS AND THEIR OPTHALMIC USE” (BIOZEP AS, priority 2015, published 2019)", "key": {"human PPARgamma": {"biological_target": "T1, human PPARgamma (Homo sapiens, UniProt P37231)", "T1 construct": "expressed in transfected cells; host or cells: HEK293 (DSMZ ACC 305)", "T1 sequence (P37231 238-503 limits assumed)": "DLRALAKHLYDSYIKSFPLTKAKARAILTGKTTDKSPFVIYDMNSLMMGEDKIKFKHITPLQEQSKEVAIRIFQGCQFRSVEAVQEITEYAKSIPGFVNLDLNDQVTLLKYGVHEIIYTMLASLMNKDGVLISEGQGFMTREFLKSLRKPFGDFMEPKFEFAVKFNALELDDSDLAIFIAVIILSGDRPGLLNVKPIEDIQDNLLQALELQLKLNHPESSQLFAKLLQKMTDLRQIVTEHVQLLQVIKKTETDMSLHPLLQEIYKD", "assay": "cellular GAL4 reporter gene assay, agonist mode, PPARgamma", "format": "cell-based", "description": "The assays were done in HEK293 cells (DSMZ ACC 305). The plasmids used in the GAL4 assay system were derivatives of Stratagene's […] plasmids: the reporter plasmid pFR-Luc (containing a synthetic promoter with five tandem repeats of the yeast GAL4 binding sites that control expression of the Photinus pyralis (American firefly) luciferase gene), and pCMV-BD (for fusions of nuclear receptor ligand binding domains to the DNA-binding domain of the yeast protein GAL4). In order to improve experimental accuracy, a second reporter-Renilla reniformis luciferase, driven by a constitutive promoter-was included as an internal control. Using the control reporter (Renilla Luciferase) allowed corrections for variations in experimental handling, e.g. transfection efficacy, cell viability, pipetting errors, cell lysis efficiency and assay efficiency. […] The compounds BIZ-102 and BIZ-103 were tested at the human PPARbeta/delta and PPARgamma receptors using the same cellular GAL4 Reporter gene assays as in Example 6. The assays were run in agonist mode to detect agonistic activities of the tested compounds."}, "ARPE-19 cells": {"tested_on": "ARPE-19 cells", "assay": "oxidative stress (tert-butyl hydroperoxide) cytolysis assay in ARPE-19 retinal pigment epithelial cells", "format": "cell-based", "details": "for inhibition of the cytotoxicity induced by t-BHP: BIZ-102 10 μM", "description": "In order to evaluate the potential of BIZ-101 to protective the eye from oxidative stress damage the compound was tested in a cell based assay. Oxidative stress was induced in an ARPE-19 cell line using tert-butyl hydroperoxide at different concentrations. The cellular viability was kinetically monitored and measured by analysing the plasma membrane integrity based on the incorporation of a non-permeant and fluorescent DNA intercalating agent that selectively stain cytolytic cells with comprised plasma membranes.\n(§1) The ARPE-19 cell line was seeded and cultured in DMEM-F12 medium+10% SVF for 24 hrs in a 96 well plate. Cells were pre-treated or not with either fenofibric acid (25 μM) or compound BIZ-101 (10 μM) during this 24 hr period. After 24 hrs, the different concentrations of t-butyl hydroperoxide were added in the presence of a fluorescent DNA intercalating agent for the following monitoring. Live content time-lapse imaging was performed with a sampling rate of 1 image every 2 hr over a 96 hrs period. The number of fluorescent/cytolytic cells were counted and reported during the experiment. The treatment conditions were tested in one experiment session in a triplicate format.\nFenofibric acid was used at 25 μM and was ordered from Sigma Aldrich. The day of the pre-treatment, a 25 mM stock solution of fenofibric acid was prepared in DMSO and diluted in the complete culture medium at 25 μM. 100 μL of this solution or 100 μL of complete culture medium+0.1% DMSO replaced the 100 μL of the complete culture medium already present in the well. The day of the treatment with t-butyl hydroperoxide, a 2 times concentrated solution of fenofibric acid was freshly diluted in the complete culture medium and 50 μL of this solution or 50 μL of complete culture medium+0.2% DMSO were added to the 100 μL of the culture medium already present in the well.\nCompound BIZ-101 was tested at a final concentration of 10 μM. A 10 mM predilution was prepared in DMSO from a 10 mM stock solution. The 10 mM solution of BIZ 101 was diluted in the complete culture medium at 10 μM. 100 μL, of this solution or 100 μL of the complete culture medium+0.1% DMSO replaced the 100 μL, of the complete culture medium already present in the well. The day of the treatment with t-butyl hydroperoxide, a 2 times concentrated solution of BIZ 101 was freshly diluted in the complete culture medium and 50 μL of this solution or 50 μL of complete culture medium+0.2% DMSO were added to the 100 μL of the culture medium already present in the well.\nPreparation of the tert-butyl hydroperoxide [tBHP] solution: 0, 0.01 mM, 0.03 mM, 0.1 mM, 0.3 mM, 1 mM, 3 mM and 10 mM. A 4 times concentrated solution of tBHP was freshly diluted in the complete culture medium for each of the concentrations to be tested. 50 μL of the 4 times concentrated solution was added to the 150 μL of the cultured medium.\nIn order to evaluate the potential of BIZ-102 to protect the eye from oxidative stress damage the compound was tested in a cell based assay similar to Example 24 with the following changes. The oxidative stress in the ARPE-19 cell line was induced by using 3 different concentrations of tBHP: 10 μM, 30 μM and 100 μM and BIZ-102 was tested in 2 different concentrations: 1 μM and 10 μM.\nas §1, with “with” for “with either fenofibric acid (25 μM) or”, “BIZ-102 (1 μM and 10” for “BIZ-101 (10”\nCompound BIZ-102 was tested at a final concentration of 1 and 10 μM. […]"}}}
{"smiles": "CCCCC/C=C\\C/C=C\\C/C=C\\C/C=C\\CCC(CC)C(=O)O", "note": "(centres unmarked) [BIZ-102, (All-Z) 2-ethyl-5,8,11,14-eicosatetraenoic Acid]", "values": [{"measurement": "EC50", "setting": "human PPARgamma", "result": 1500, "unit": "nM"}, {"measurement": "PPARgamma efficacy vs. Rosiglitazone", "setting": "human PPARgamma", "result": 23, "unit": "%"}, {"measurement": "inhibition of the cytotoxicity induced by t-BHP", "setting": "ARPE-19 cells; 10 μM t-BHP, FIG. 9A", "result": "significant inhibition"}, {"measurement": "inhibition of the cytotoxicity induced by t-BHP", "setting": "ARPE-19 cells; 30 μM t-BHP, FIG. 9B", "result": "significant inhibition"}, {"measurement": "effect on retinal pigment epithelial cells during conditions of oxidative stress", "setting": "ARPE-19 cells; overall conclusion", "result": "protective effect"}]}
